Results reported in the NIST ThermoML archive (doi:10.1016/j.fluid.2018.04.025).
Numbers after ± are expanded uncertainties.

What was measured:
[1] = xn = mol fraction of the nth substance listed; settings: 101 kPa, Liquid, x2 = 0; for viscosity: Falling or rolling sphere viscometry; for speed of sound: Frequency=3 MHz, Sing-around technique in a fixed-path interferometer; for mass density: Vibrating tube method
[2] = 101.3 kPa, Liquid; for viscosity: Falling or rolling sphere viscometry; for speed of sound: Frequency=3 MHz, Sing-around technique in a fixed-path interferometer; for mass density: Vibrating tube method

For CCCCO [butan-1-ol] + CCCC[n+]1ccn(C)c1.O=S(=O)([N-]S(=O)(=O)C(F)(F)F)C(F)(F)F, the viscosity ([1]; 298.15 K) was 2.57 ± 0.6 mPa·s, the speed of sound ([1]; 298.15 K) was 1242.4 ± 1 m/s and the mass density ([1]; 298.15 K) was 806.704 ± 0.17 kg/m3. It also gave a viscosity ([1]; 303.15 K) of 2.26 ± 0.6 mPa·s, a speed of sound ([1]; 303.15 K) of 1225.5 ± 1 m/s and a mass density ([1]; 303.15 K) of 802.704 ± 0.17 kg/m3. The viscosity ([1]; 308.15 K) was 1.99 ± 0.6 mPa·s, the speed of sound ([1]; 308.15 K) was 1208.7 ± 1 m/s and the mass density ([1]; 308.15 K) was 798.992 ± 0.17 kg/m3. For the same compound, the viscosity ([1]; 313.15 K) was 1.77 ± 0.6 mPa·s, the speed of sound ([1]; 313.15 K) was 1192 ± 1 m/s and the mass density ([1]; 313.15 K) was 795.065 ± 0.17 kg/m3. For the same compound, the viscosity ([1]; 318.15 K) was 1.58 ± 0.6 mPa·s, the speed of sound ([1]; 318.15 K) was 1175.4 ± 1 m/s and the mass density ([1]; 318.15 K) was 791.094 ± 0.18 kg/m3. The viscosity ([1]; 323.15 K) was 1.41 ± 0.6 mPa·s, the speed of sound ([1]; 323.15 K) was 1158.8 ± 1 m/s and the mass density ([1]; 323.15 K) was 787.075 ± 0.18 kg/m3.
With CCCC[n+]1ccn(C)c1.O=S(=O)([N-]S(=O)(=O)C(F)(F)F)C(F)(F)F the viscosity ([2]; 298.15 K) was 51.15 ± 0.74 mPa·s, the speed of sound ([2]; 298.15 K) was 1227.3 ± 2.1 m/s and the mass density ([2]; 298.15 K) was 1436.02 ± 1.9 kg/m3. The viscosity ([2]; 303.15 K) was 41.88 ± 0.74 mPa·s, the speed of sound ([2]; 303.15 K) was 1216.3 ± 2.1 m/s and the mass density ([2]; 303.15 K) was 1431.22 ± 1.9 kg/m3. For the same compound, the viscosity ([2]; 308.15 K) was 34.58 ± 0.67 mPa·s, the speed of sound ([2]; 308.15 K) was 1205.5 ± 2.1 m/s and the mass density ([2]; 308.15 K) was 1426.43 ± 1.8 kg/m3. The viscosity ([2]; 313.15 K) was 28.98 ± 0.62 mPa·s, the speed of sound ([2]; 313.15 K) was 1194.7 ± 2.1 m/s and the mass density ([2]; 313.15 K) was 1421.64 ± 1.8 kg/m3. For the same compound, the viscosity ([2]; 318.15 K) was 24.6 ± 0.59 mPa·s, the speed of sound ([2]; 318.15 K) was 1184 ± 2.1 m/s and the mass density ([2]; 318.15 K) was 1416.84 ± 1.8 kg/m3. For the same compound, the viscosity ([2]; 323.15 K) was 21.1 ± 0.57 mPa·s, the speed of sound ([2]; 323.15 K) was 1173.5 ± 2.1 m/s and the mass density ([2]; 323.15 K) was 1411.89 ± 1.8 kg/m3.
For CCCO [propan-1-ol] + CCCC[n+]1ccn(C)c1.O=S(=O)([N-]S(=O)(=O)C(F)(F)F)C(F)(F)F, the viscosity ([1]; 298.15 K) was 1.89 ± 0.6 mPa·s, the speed of sound ([1]; 298.15 K) was 1206.6 ± 0.86 m/s and the mass density ([1]; 298.15 K) was 799.924 ± 0.14 kg/m3. It also gave a viscosity ([1]; 303.15 K) of 1.69 ± 0.6 mPa·s, a speed of sound ([1]; 303.15 K) of 1189.5 ± 0.86 m/s and a mass density ([1]; 303.15 K) of 795.888 ± 0.14 kg/m3. For the same compound, the viscosity ([1]; 308.15 K) was 1.51 ± 0.6 mPa·s, the speed of sound ([1]; 308.15 K) was 1172.5 ± 0.85 m/s and the mass density ([1]; 308.15 K) was 791.815 ± 0.14 kg/m3. It also gave a viscosity ([1]; 313.15 K) of 1.35 ± 0.6 mPa·s, a speed of sound ([1]; 313.15 K) of 1155.6 ± 0.85 m/s and a mass density ([1]; 313.15 K) of 787.7 ± 0.14 kg/m3. For the same compound, the viscosity ([1]; 318.15 K) was 1.22 ± 0.6 mPa·s, the speed of sound ([1]; 318.15 K) was 1138.8 ± 0.84 m/s and the mass density ([1]; 318.15 K) was 783.538 ± 0.15 kg/m3. The viscosity ([1]; 323.15 K) was 1.09 mPa·s, the speed of sound ([1]; 323.15 K) was 1122 ± 0.84 m/s and the mass density ([1]; 323.15 K) was 779.321 ± 0.15 kg/m3.
